Earlier results in patent US10709795B2, “Method for delivering pharmaceutical nanoparticles to cancer cells” (National Guard Health Affairs, priority 2017, dated 2020).
Like-named read-outs stand apart in the source and are kept apart here.

Legend:
[1] = not given; remark: listed apart in the source
[2] = Grades 1-4, N = 2448, 1st line of this name
[3] = Grades 1-4, N = 2448, 2nd line of this name

- Endometrial Hyperplasia/Cancer, % (Grades 1-4, 1st line of this name): 0.8%
- Endometrial Hyperplasia/Cancer, % (Grades 1-4, 2nd line of this name): 0.3%
- Alopecia, % (Grades 1-4, N = 2448): 3.4%
- Angina, % (Grades 1-4, N = 2448): 1.3%
- Angine, % (Grades 1-4, N = 2448): 1.1%
- Anorexia, % (Grades 1-4, N = 2448): 1.5%
- Arthralgia/Arthritis, % (Grades 1-4, N = 2448): 25.2%
- Back pain, % (Grades 1-4, N = 2448): 5.1%
- Bone Pain, % (Grades 1-4, N = 2448): 5.0%
- Breast Pain, % (Grades 1-4, N = 2448): 2.0%
- Cataract, % (Grades 1-4, N = 2448): 2.0%
- Constipation, % (Grades 1-4, N = 2448): 2.0%
- Depression, % (Grades 1-4, N = 2448): 4.9%
- Dizziness/Light headedness, % (Grades 1-4, N = 2448): 3.4%
- Edema, % (Grades 1-4, N = 2448): 6.7%
- Fatigue (Lethargy, Malaise, Asthenia), % (Grades 1-4, N = 2448): 9.6%
- Headache, % (Grades 1-4, N = 2448): 4.3%
- Hot Flashes/Flushes, % (Grades 1-4, N = 2448): 33.5%
- Hypercholesterolemia, % (Grades 1-4, N = 2448): 52.3%
- Myalgia, % (Grades 1-4, N = 2448): 8.9%
- Myocardial Ischemia, % (Grades 1-4, N = 2448): 0.2%
- Nausea, % (Grades 1-4, N = 2448): 11.6%
- Night Sweats, % (Grades 1-4, N = 2448): 25.2%
- Osteopenia, % (Grades 1-4, N = 2448): 3.6%
- Osteoporosis NOS, % (Grades 1-4, N = 2448): 5.1%
- Other Endometrial Disorders, % (Grades 1-4, N = 2448): <0.1%
- Pain in extremity, % (Grades 1-4, N = 2448): 4.2%
- Vaginal Bleeding, % (Grades 1-4, N = 2448): 5.2%
- Vomiting, % (Grades 1-4, N = 2448): 3.3%
- Weight Decrease, % (Grades 1-4, N = 2448): 5.7%
- Weight Increase, % (Grades 1-4, N = 2448): 13.8%
- Bone Fractures, % [2]: 14.6%
- Myocardial Infarction, % [2]: 1.0%
- Second Malignancies, % [2]: 2.2%
- Thromboembolic Event, % [2]: 2.1%
- Bone Fractures, % [3]: 10.1%
- Myocardial Infarction, % [3]: 1.5%
- Second Malignancies, % [3]: 4.2%
- Thromboembolic Event, % [3]: 2.9%
- Anorexia, % (Grades 3-4, N = 2448): <0.1%
- Arthralgia/Arthritis, % (Grades 3-4, N = 2448): 3.5%
- Back pain, % (Grades 3-4, N = 2448): 0.3%
- Bone Pain, % (Grades 3-4, N = 2448): 0.2%
- Breast Pain, % (Grades 3-4, N = 2448): <0.1%
- Cataract, % (Grades 3-4, N = 2448): 0.7%
- Constipation, % (Grades 3-4, N = 2448): 0.1%
- Depression, % (Grades 3-4, N = 2448): 0.7%
- Dizziness/Light headedness, % (Grades 3-4, N = 2448): <0.1%
- Edema, % (Grades 3-4, N = 2448): 0.1%
- Fatigue (Lethargy, Malaise, Asthenia), % (Grades 3-4, N = 2448): 0.2%
- Headache, % (Grades 3-4, N = 2448): 0.4%
- Hypercholesterolemia, % (Grades 3-4, N = 2448): 0.4%
- Myalgia, % (Grades 3-4, N = 2448): 0.7%
- Nausea, % (Grades 3-4, N = 2448): 0.2%
- Osteoporosis NOS, % (Grades 3-4, N = 2448): 0.4%
- Pain in extremity, % (Grades 3-4, N = 2448): 0.1%
- Vaginal Bleeding, % (Grades 3-4, N = 2448): <0.1%
- Vomiting, % (Grades 3-4, N = 2448): 0.1%
- Weight Decrease, % (Grades 3-4, N = 2448): 0.3%
- Weight Increase, % (Grades 3-4, N = 2448): 1.1%
- water solubility (in words) [1]: water insoluble
SMILES: N#Cc1ccc(C(c2ccc(C#N)cc2)n2cncn2)cc1 [Femara, Letrozole]
- Endometrial proliferation Disorders, % (Grades 1-4, N = 2448): 0.3%
- Pts with any adverse event, % (Grades 1-4, N = 2448): 94.4%
- Vaginal Irritation, % (Grades 1-4, N = 2448): 4.5%
- Cerebrovascular Accident, % [2]: 2.1%
- Other Cardiovascular1, % [2]: 10.6%
- Cerebrovascular Accident, % [3]: 2.9%
- Other Cardiovascular1, % [3]: 12.7%
- Pts with any adverse event, % (Grades 3-4, N = 2448): 25.9%
- Vaginal Irritation, % (Grades 3-4, N = 2448): <0.1%
